Biological target: T1, human Endothelial Differentiation Gene 1 (EDG1) (Homo sapiens, UniProt P21453)
T1 construct: TEV protease site; Gal4-VP16 transcription factor; expressed in transfected cells; host or cells: EDG1-bla/U2OS (Tango GPCR-bla U2OS parental cell line)
Test: S1P1 Tango assay - 384 well format
Assay type: cell-based
Conditions: EDG1-bla/U2OS cells, agonist
Procedure: S1P1 Tango assay—384 Well Format
Recombinant EDG1-bla/U2OS cells (contain the human Endothelial Differentiation Gene 1 (EDG1) linked to a TEV protease site and a Gal4-VP16 transcription factor stably integrated into the Tango GPCR-bla U2OS parental cell line) were harvested from growth medium and passaged into assay medium (Invitrogen Freestyle Expression Medium). The cells were starved for 24 hours at 37° C., 5% CO2, harvested and resuspended in assay medium at a density of ˜200,000 cells/ml. All test compounds were dissolved in DMSO at a concentration of 10 mM and were prepared in 100% DMSO to provide 10 point dose response curves. Test compounds prepared by Bravo (Velocity11) were added to wells in columns 2-11 and 13-22; DMSO was added to wells in columns 12 and 23 as unstimulated controls and assay medium was added to wells in columns 1 and 24 as cell-free controls. An S1P1 agonist was added to wells in row 2, columns 2-11 as stimulated controls and test compounds were added to wells in row 2, columns 13-22 and rows 3-15, columns 2-11/13-22 (row 1 and 16 were empty and not used). Compounds in solution were added to the assay plate (Greiner 781090) using an Echo (Labcyte) dose-response program (50 nl/well). The unstimulated and cell-free controls were loaded with 50 nl/well pure DMSO to ensure that the DMSO concentration was constant across the plate for all assays.
50 μl of the cell suspension was added to each well in columns 2-23 of the plate (˜10,000 cells per well). 50 μl of assay medium was added to each well in the cell-free controls (columns 1 and 24). The cells were incubated overnight at 37° C./5% CO2.
10 μl of 6× substrate mixture (LiveBLAzer™-FRET B/G substrate (CCF4-AM) Cat #K1096 from Invitrogen, Inc.) was added to each well using Bravo and the plates incubated at room temperature for 2 h in the dark. The plate was finally read on EnVision using one excitation channel (409 nm) and two emission channels (460 nm and 530 nm).
The blue/green emission ratio (460 nm/530 nm) was calculated for each well, by dividing the background-subtracted Blue emission values by the background-subtracted Green emission values. The dose response curve is based on sigmoidal dose-response model. All ratio data was normalized based upon the maximum emission ratio of positive control and minimum emission ratio of negative control (DMSO) on each plate. The intrinsic activity (IA) of each compound would be the normalized percentage of its maximum response after curve fitting.

T1 sequence (P21453 whole entry, the tested form may be a part): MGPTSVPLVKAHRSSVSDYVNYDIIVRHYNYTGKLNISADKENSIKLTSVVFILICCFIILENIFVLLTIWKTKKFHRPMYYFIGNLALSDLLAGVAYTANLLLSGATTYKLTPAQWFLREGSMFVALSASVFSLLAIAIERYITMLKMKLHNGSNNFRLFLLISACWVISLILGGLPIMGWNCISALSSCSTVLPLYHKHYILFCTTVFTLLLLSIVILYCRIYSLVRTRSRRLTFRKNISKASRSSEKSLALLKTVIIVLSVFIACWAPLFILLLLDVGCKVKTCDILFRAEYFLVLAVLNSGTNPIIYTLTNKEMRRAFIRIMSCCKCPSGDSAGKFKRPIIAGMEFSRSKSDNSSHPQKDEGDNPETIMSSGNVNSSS

| Compound | EC50 |
| --- | --- |
| CC(C)Oc1ccc(-c2nc(-c3cccc(CCCC(=O)O)c3Cl)no2)cc1C#N [Example 11, 4-[2-chloro-3-(5-{3-cyano-4-[(1-methylethyl)oxy]phenyl}-1,2,4-oxadiazol-3-yl)phenyl]butanoic acid] | ≤ 1 nM |
| CC(C)Oc1ccc(-c2nc(-c3cccc(CCCCCC(=O)O)c3Cl)no2)cc1C#N [Example 12, 6-[2-chloro-3-(5-{3-cyano-4-[(1-methylethyl)oxy]phenyl}-1,2,4-oxadiazol-3-yl)phenyl]hexanoic acid] | ≤ 1 nM |
| CCc1c(CCCC(=O)O)cccc1-c1noc(-c2cnc(OC(C)C)c(Cl)c2)n1 [Example 14, 4-[3-(5-{5-chloro-6-[(1-methylethyl)oxy]-3-pyridinyl}-1,2,4-oxadiazol-3-yl)-2-ethylphenyl]butanoic acid] | ≤ 10 nM |
| COc1c(CCCC(=O)O)cccc1-c1noc(-c2ccc(OC(C)C)c(Cl)c2)n1 [Example 17, 4-[3-(5-{3-chloro-4-[(1-methylethyl)oxy]phenyl}-1,2,4-oxadiazol-3-yl)-2-(methyloxy)phenyl]butanoic acid] | ≤ 1 nM |
| CC(C)Oc1ccc(-c2nc(-c3cccc(CCC(=O)O)c3C(F)(F)F)no2)cc1C#N [Example 24, 3-[3-(5-{3-cyano-4-[(1-methylethyl)oxy]phenyl}-1,2,4-oxadiazol-3-yl)-2-(trifluoromethyl)phenyl]propanoic acid] | ≤ 10 nM |
| CC(C)Oc1ccc(-c2nc(-c3cccc(CCCC(=O)O)c3C(F)(F)F)no2)cc1C#N [Example 25, 4-[3-(5-{3-cyano-4-[(1-methylethyl)oxy]phenyl}-1,2,4-oxadiazol-3-yl)-2-(trifluoromethyl)phenyl]butanoic acid] | ≤ 100 nM |
| CCc1c(CCCC(=O)O)cccc1-c1noc(-c2ccc(OC(C)C)c(Cl)c2)n1 [Example 28, 4-[3-(5-{3-chloro-4-[(1-methylethyl)oxy]phenyl}-1,2,4-oxadiazol-3-yl)-2-ethylphenyl]butanoic acid] | ≤ 1 nM |
| COc1c(CCCC(=O)O)cc(F)cc1-c1noc(-c2cnc(OC(C)C)c(Cl)c2)n1 [Example 32, 4-[3-(5-{5-chloro-6-[(1-methylethyl)oxy]-3-pyridinyl}-1,2,4-oxadiazol-3-yl)-5-fluoro-2-(methyloxy)phenyl]butanoic acid] | ≤ 10 nM |
| COc1c(CCC(=O)O)cc(F)cc1-c1noc(-c2cnc(OC(C)C)c(Cl)c2)n1 [Example 33, 3-[3-(5-{5-chloro-6-[(1-methylethyl)oxy]-3-pyridinyl}-1,2,4-oxadiazol-3-yl)-5-fluoro-2-(methyloxy)phenyl]propanoic acid] | ≤ 100 nM |
| COc1c(CCC(=O)O)cc(F)cc1-c1noc(-c2ccc(OC(C)C)c(Cl)c2)n1 [Example 34, 3-[3-(5-{3-chloro-4-[(1-methylethyl)oxy]phenyl}-1,2,4-oxadiazol-3-yl)-5-fluoro-2-(methyloxy)phenyl]propanoic acid] | ≤ 10 nM |
| COc1c(CCCC(=O)O)cc(F)cc1-c1noc(-c2ccc(OC(C)C)c(Cl)c2)n1 [Example 35, 4-[3-(5-{3-chloro-4-[(1-methylethyl)oxy]phenyl}-1,2,4-oxadiazol-3-yl)-5-fluoro-2-(methyloxy)phenyl]butanoic acid] | ≤ 1 nM |
| CCCc1c(CCCC(=O)O)cccc1-c1noc(-c2ccc(OC(C)C)c(Cl)c2)n1 [Example 36, 4-[3-(5-{3-chloro-4-[(1-methylethyl)oxy]phenyl}-1,2,4-oxadiazol-3-yl)-2-propylphenyl]butanoic acid] | ≤ 10 nM |
| CCc1c(OCCCC(=O)O)cccc1-c1noc(-c2ccc(OC(C)C)c(C#N)c2)n1 [Example 38, 4-{[3-(5-{3-cyano-4-[(1-methylethyl)oxy]phenyl}-1,2,4-oxadiazol-3-yl)-2-ethylphenyl]oxy}butanoic acid] | ≤ 10 nM |
| CCc1c(OCCCC(=O)O)cccc1-c1noc(-c2ccc(OC(C)C)c(Cl)c2)n1 [Example 39, 4-{[3-(5-{3-chloro-4-[(1-methylethyl)oxy]phenyl}-1,2,4-oxadiazol-3-yl)-2-ethylphenyl]oxy}butanoic acid] | ≤ 1 nM |
| CCc1c(OCC(=O)O)cccc1-c1noc(-c2ccc(OC(C)C)c(C#N)c2)n1 [Example 40, {[3-(5-{3-cyano-4-[(1-methylethyl)oxy]phenyl}-1,2,4-oxadiazol-3-yl)-2-ethylphenyl]oxy}acetic acid] | ≤ 10 nM |

Other lines, results leading:

| EC50 | Compound |
| --- | --- |
| ≤ 10 nM | Cc1c(-c2noc(-c3ccc(OC(C)C)c(Cl)c3)n2)ccnc1CCCC(=O)O [Example 7, 4-[4-(5-{3-chloro-4-[(1-methylethyl)oxy]phenyl}-1,2,4-oxadiazol-3-yl)-3-methyl-2-pyridinyl]butanoic acid] |
| ≤ 10 nM | CC(C)Oc1ncc(-c2nc(-c3cccc(CCC(=O)O)c3Cl)no2)cc1Cl [Example 8, 3-[2-chloro-3-(5-{5-chloro-6-[(1-methylethyl)oxy]-3-pyridinyl}-1,2,4-oxadiazol-3-yl)phenyl]propanoic acid] |
| ≤ 1 nM | CCc1c(CCCC(=O)O)cccc1-c1noc(-c2ccc(OC(C)C)c(C#N)c2)n1 [Example 15, 4-[3-(5-{3-cyano-4-[(1-methylethyl)oxy]phenyl}-1,2,4-oxadiazol-3-yl)-2-ethylphenyl]butanoic acid] |
| ≤ 1000 nM | CC(C)Oc1ccc(-c2nc(-c3ccnc(CCC(=O)O)c3)no2)cc1C#N [Example 20, 3-[4-(5-{3-cyano-4-[(1-methylethyl)oxy]phenyl}-1,2,4-oxadiazol-3-yl)-2-pyridinyl]propanoic acid] |
| ≤ 1000 nM | CC(C)Oc1ccc(-c2nc(-c3ccc(F)c(CCC(=O)O)c3)no2)cc1C#N [Example 22, 3-[5-(5-{3-cyano-4-[(1-methylethyl)oxy]phenyl}-1,2,4-oxadiazol-3-yl)-2-fluorophenyl]propanoic acid] |
| ≤ 1000 nM | CC(C)Oc1ccc(-c2nc(-c3ccc(F)c(CCCC(=O)O)c3)no2)cc1C#N [Example 23, 4-[5-(5-{3-cyano-4-[(1-methylethyl)oxy]phenyl}-1,2,4-oxadiazol-3-yl)-2-fluorophenyl]butanoic acid] |
| ≤ 1 nM | CCc1c(CCC(=O)O)cccc1-c1noc(-c2ccc(OC(C)C)c(Cl)c2)n1 [Example 29, 3-[3-(5-{3-chloro-4-[(1-methylethyl)oxy]phenyl}-1,2,4-oxadiazol-3-yl)-2-ethylphenyl]propanoic acid] |
| ≤ 1 nM | COc1c(CCC(=O)O)cc(F)cc1-c1noc(-c2ccc(OC(C)C)c(C#N)c2)n1 [Example 30, 3-[3-(5-{3-cyano-4-[(1-methylethyl)oxy]phenyl}-1,2,4-oxadiazol-3-yl)-5-fluoro-2-(methyloxy)phenyl]propanoic acid] |
| ≤ 1 nM | COc1c(CCCC(=O)O)cc(F)cc1-c1noc(-c2ccc(OC(C)C)c(C#N)c2)n1 [Example 31, 4-[3-(5-{3-cyano-4-[(1-methylethyl)oxy]phenyl}-1,2,4-oxadiazol-3-yl)-5-fluoro-2-(methyloxy)phenyl]butanoic acid] |
| ≤ 10 nM | CCCc1c(CCCC(=O)O)cccc1-c1noc(-c2ccc(OC(C)C)c(C#N)c2)n1 [Example 37, 4-[3-(5-{3-cyano-4-[(1-methylethyl)oxy]phenyl}-1,2,4-oxadiazol-3-yl)-2-propylphenyl]butanoic acid] |
| ≤ 10 nM | CCc1c(CCCC(=O)O)cccc1-c1nnc(-c2ccc(OC(C)C)c(C#N)c2)o1 [Example 41, 4-[3-(5-{3-cyano-4-[(1-methylethyl)oxy]phenyl}-1,3,4-oxadiazol-2-yl)-2-ethylphenyl]butanoic acid] |

Source: patent US20120101134A1, “5-MEMBERED HETEROARYL DERIVATIVES USED AS SPHINGOSINE 1-PHOSPHATE RECEPTOR AGONISTS” (GLAXO GROUP LIMITED, priority 2009, published 2012)
